Laboratory results reported in patent publication US11229638B2, “Therapeutic heterocyclic compounds” (Gilead Sciences, Inc., priority 2017, dated 2022).

Target: T1, IDO1 (Homo sapiens, UniProt P14902)
T1 construct: HeLa cells were treated with a test compound in the presence of IFNγ, which induces IDO1 expression; host or cells: H1-HeLa cells, IDO1 induced with IFN-gamma
Test: Cell-Based (HeLa) Assay for Measurement of IDO1 Inhibition
Conditions: H1-HeLa cells, IDO1 induced by IFNγ, 48 hour incubation, kynurenine in supernatant (absorbance at 480 nm); geometric mean of a minimum of four determinations
Experimental: Example 509. Cell-Based (HeLa) Assay for Measurement of IDO1 Inhibition
To measure IDO1 inhibition in tissue culture, HeLa cells were treated with a test compound in the presence of IFNγ, which induces IDO1 expression. Following incubation, cell supernatants were assayed for kynurenine levels, an indicator of IDO1 activity.
H1-HeLa cells (ATCC # CRL-1958) were seeded in 384-well plates (Greiner #82051-282) at a volume of 50 µL/well in DMEM (Corning #15-018-CM) supplemented with 10% FBS (Corning #35-011-CV) and 1% P/S/G (Corning #30-009-CL) at a density of 1,250 cells/well and incubated overnight at 37° C., 5% CO2/100% humidity. The following day, the test compounds were added in DMSO (0.5% final) at various concentrations, and IDO1 was inducibly expressed by the addition of 50 uL/well of 50 ng/mL of INFγ (Peprotech #300-02) in cell plating media. As a positive control, 50 uL of the cell plating media without IFNγ was added to several wells. Following a 48 hour incubation, the plates were spun down at 1,200 RPM for 5 min at 10° C. […]
Data in Table 1 were normalized based on positive (−IFNγ) and negative (+IFNγ) controls and EC50 values were calculated from the fit of the dose-response curves to a four-parameter equation. […]

T1 sequence (P14902 whole entry): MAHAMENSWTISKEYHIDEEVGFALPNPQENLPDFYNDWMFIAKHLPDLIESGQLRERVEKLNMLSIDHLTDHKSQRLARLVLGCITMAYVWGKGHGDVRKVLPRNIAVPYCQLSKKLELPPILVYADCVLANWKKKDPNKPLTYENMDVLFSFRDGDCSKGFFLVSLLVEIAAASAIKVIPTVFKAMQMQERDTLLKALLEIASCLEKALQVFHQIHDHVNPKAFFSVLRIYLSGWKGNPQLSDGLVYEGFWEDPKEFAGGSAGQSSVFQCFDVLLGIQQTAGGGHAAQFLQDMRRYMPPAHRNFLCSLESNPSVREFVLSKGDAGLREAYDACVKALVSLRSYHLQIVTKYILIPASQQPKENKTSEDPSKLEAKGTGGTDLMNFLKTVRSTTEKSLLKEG

Row | EC50 | Compound
1 | 29.9 nM | N-(4-chlorophenyl)-5-(3-(2,3-difluorophenyl)imidazo[1,5-a]pyridin-8-yl)-2-methylnicotinamide [Example 61]
2 | 5000 nM | Cc1ncc(-c2cccn3c(C4CCOC4)ncc23)cc1C(=O)Nc1ccc(F)cc1 (centres unmarked) [Example 76, N-(4-fluorophenyl)-2-methyl-5-(3-(tetrahydrofuran-3-yl)imidazo[1,5-a]pyridin-8-yl)nicotinamide]
